Measured values from the NIST ThermoML archive (doi:10.1021/je400332j).

Legend:
[1] = 101.33 kPa, Liquid; for viscosity: Concentric cylinders viscometry; for mass density: Vibrating tube method
[2] = xn = mol fraction of the nth substance listed; details: 101 kPa, Liquid; for viscosity: Concentric cylinders viscometry; for mass density: Vibrating tube method

CCn1cc[n+](C)c1.F[B-](F)(F)F [1-ethyl-3-methylimidazolium tetrafluoroborate]
[1]
Details	mass density [kg/m3]	viscosity [mPa·s]
293.15 K	1283.9	45.47
298.15 K	1280	37.46
303.15 K	1276.2	31.29
308.15 K	1272.4	26.45
313.15 K	1268.6	22.61
318.15 K	1264.9	19.51
323.15 K	1261.2	17
328.15 K	1257.4	14.92
333.15 K	1253.8	13.2
338.15 K	1250.1	11.76
343.15 K	1246.5	10.54

CCn1cc[n+](C)c1.F[B-](F)(F)F [1-ethyl-3-methylimidazolium tetrafluoroborate] + CCCCCCn1cc[n+](C)c1.F[B-](F)(F)F
[2], x1 = 1
Details	mass density [kg/m3]	viscosity [mPa·s]
293.15 K	1283.9	45.47
298.15 K	1280	37.46
303.15 K	1276.2	31.29
308.15 K	1272.4	26.45
313.15 K	1268.6	22.61
318.15 K	1264.9	19.51
323.15 K	1261.2	17
328.15 K	1257.4	14.92
333.15 K	1253.8	13.2
338.15 K	1250.1	11.76
343.15 K	1246.5	10.54

CCn1cc[n+](C)c1.F[B-](F)(F)F [1-ethyl-3-methylimidazolium tetrafluoroborate] + CCCn1cc[n+](C)c1.F[B-](F)(F)F
[2], x1 = 1
Details	mass density [kg/m3]	viscosity [mPa·s]
293.15 K	1283.9	45.47
298.15 K	1280	37.46
303.15 K	1276.2	31.29
308.15 K	1272.4	26.45
313.15 K	1268.6	22.61
318.15 K	1264.9	19.51
323.15 K	1261.2	17
328.15 K	1257.4	14.92
333.15 K	1253.8	13.2
338.15 K	1250.1	11.76
343.15 K	1246.5	10.54

CCCCCCn1cc[n+](C)c1.F[B-](F)(F)F [1-hexyl-3-methylimidazolium tetrafluoroborate]
[1]
Details	mass density [kg/m3]	viscosity [mPa·s]
293.15 K	1147.5	280.4
298.15 K	1144.1	206.3
303.15 K	1140.6	154.9
308.15 K	1137.2	118.7
313.15 K	1133.7	92.56
318.15 K	1130.3	73.37
323.15 K	1127	59.03
328.15 K	1123.6	48.16
333.15 K	1120.2	39.71
338.15 K	1116.8	33.21
343.15 K	1113.4	28.03

CCCCCCn1cc[n+](C)c1.F[B-](F)(F)F [1-hexyl-3-methylimidazolium tetrafluoroborate] + CCCn1cc[n+](C)c1.F[B-](F)(F)F
[2], x2 = 0
Details	mass density [kg/m3]	viscosity [mPa·s]
293.15 K	1147.5	280.4
298.15 K	1144.1	206.3
303.15 K	1140.6	154.9
308.15 K	1137.2	118.7
313.15 K	1133.7	92.56
318.15 K	1130.3	73.37
323.15 K	1127	59.03
328.15 K	1123.6	48.16
333.15 K	1120.2	39.71
338.15 K	1116.8	33.21
343.15 K	1113.4	28.03

CCCn1cc[n+](C)c1.F[B-](F)(F)F [1-propyl-3-methylimidazolium tetrafluoroborate]
[1]
Details	mass density [kg/m3]	viscosity [mPa·s]
293.15 K	1239.3	95.44
298.15 K	1235.7	74.04
303.15 K	1232	58.59
308.15 K	1228.3	47.16
313.15 K	1224.7	38.56
318.15 K	1221	31.98
323.15 K	1217.4	26.83
328.15 K	1213.8	22.77
333.15 K	1210.2	19.54
338.15 K	1206.6	16.92
343.15 K	1203	14.77
